Test results taken from patent publication US20150105252A1, “SUBSTITUTED PYRAZOLES AS HERBICIDES” (E I DU PONT DE NEMOURS AND COMPANY, priority 2013, published 2015).

Legend:
Test in all cases: Test F preemergence
field bindweed = format: in vivo, Convolvulus arvensis
From the text: (§1) Seeds of plant species selected from corn (Zea mays), soybean (Glycine max), velvetleaf (Abutilon theophrasti), lambsquarters (Chenopodium album), wild poinsettia (Euphorbia heterophylla), pigweed, palmer (palmer pigweed, Amaranthus palmeri), common waterhemp (Amaranthus rudis), surinam grass (Brachiaria decumbens), large crabgrass (Digitaria sanguinalis), crabgrass, Brazil (Brazilian crabgrass, Digitaria horizontalis), fall panicum (Panicum dichotomiflorum), giant foxtail (Setaria faberii), green foxtail (Setaria viridis), goosegrass (Eleusine indica), johnsongrass (Sorghum halepense), common ragweed (Ambrosia elation), barnyardgrass (Echinochloa crus-galli), southern sandbur (Cenchrus echinatus), arrowleaf sida (Sida rhombifolia), Italian ryegrass (Lolium multiflorum), dayflower, VA (Virginia (VA) dayflower, Commelina virginica), field bindweed (Convolvulus arvensis), cocklebur (common cocklebur, Xanthium strumarium), morningglory (Ipomoea coccinea), nightshade (eastern black nightshade, Solanum ptycanthum), kochia (Kochia scoparia), yellow nutsedge (Cyperus esculentus), and hairy beggarticks (Bidens pilosa), were planted into a silt loam soil and treated preemergence with test chemicals formulated in a non-phytotoxic solvent mixture which included a surfactant.
(§2) At the same time, plants from these crop and weed species and also horseweed (Canada horseweed, Conyza canadensis), smartweed (ladysthumb smartweed, Polygonum persicaria), waterhemp_RES1, (ALS & Triazine resistant common waterhemp, Amaranthus rudis), and waterhemp_RES2, (ALS & HPPD resistant common waterhemp, Amaranthus rudis) were treated with postemergence applications of test chemicals formulated in the same manner. Plants ranged in height from 2 to 18 cm for postemergence treatments (1- to 4-leaf stage). Treated plants and controls were maintained in a greenhouse for 14 to 21 days, after which time all species were compared to controls and visually evaluated. Plant response ratings, summarized in Table F, are based on a scale of 0 to 100 where 0 is no effect and 100 is complete control. A dash (-) response means no test result.

goosegrass = format: in vivo, Eleusine indica
From the text: as §1, §2

common ragweed = format: in vivo, Ambrosia elation
From the text: as §1, §2

large crabgrass = format: in vivo, Digitaria sanguinalis
From the text: as §1, §2

arrowleaf sida = format: in vivo, Sida rhombifolia
From the text: as §1, §2

johnsongrass = format: in vivo, Sorghum halepense
From the text: as §1, §2

[1] = Preemergence, 31 g ai/ha, scale 0 to 100
[2] = Preemergence, 62 g ai/ha, scale 0 to 100
[3] = Preemergence, 125 g ai/ha, scale 0 to 100
[4] = preemergence, 8 g ai/ha, scale 0 to 100, 100 is complete control
[5] = preemergence, 16 g ai/ha, scale 0 to 100, 100 is complete control

SMILES	Plant response rating, Field Bindweed (field bindweed; [1])	Plant response rating, Field Bindweed (field bindweed; [2])	Plant response rating, Field Bindweed (field bindweed; [3])	Plant response rating, Field Bindweed (field bindweed; [4])	Plant response rating, Goosegrass (goosegrass; [1])	Plant response rating, Goosegrass (goosegrass; [2])	Plant response rating, Goosegrass (goosegrass; [3])	Plant response rating, Goosegrass (goosegrass; [4])	Plant response rating, Common Ragweed (common ragweed; [1])	Plant response rating, Common Ragweed (common ragweed; [2])	Plant response rating, Common Ragweed (common ragweed; [3])	Plant response rating, Common Ragweed (common ragweed; [4])	Plant response rating, Large Crabgrass (large crabgrass; [1])	Plant response rating, Large Crabgrass (large crabgrass; [2])	Plant response rating, Large Crabgrass (large crabgrass; [3])	Plant response rating, Large Crabgrass (large crabgrass; [4])	Plant response rating, Arrowleaf Sida (arrowleaf sida; [1])	Plant response rating, Arrowleaf Sida (arrowleaf sida; [2])	Plant response rating, Arrowleaf Sida (arrowleaf sida; [3])	Plant response rating, Arrowleaf Sida (arrowleaf sida; [4])	further results
CCOc1cc(C(=O)NCC(F)(F)F)nn1Cc1ccnc(C(F)(F)F)c1 [Compound 104]	30	50	95	0	30	75	100	5	95	100	100	0	100	100	100	70	10	20	30	0	Plant response rating, Field Bindweed (field bindweed; [5]): 10; Plant response rating, Goosegrass (goosegrass; [5]): 25; Plant response rating, Common Ragweed (common ragweed; [5]): 0; Plant response rating, Large Crabgrass (large crabgrass; [5]): 90; Plant response rating, Arrowleaf Sida (arrowleaf sida; [5]): 0; Plant response rating, Johnsongrass (johnsongrass; [1]): 60; Plant response rating, Johnsongrass (johnsongrass; [2]): 75; Plant response rating, Johnsongrass (johnsongrass; [3]): 100; Plant response rating, Johnsongrass (johnsongrass; [4]): 15; Plant response rating, Johnsongrass (johnsongrass; [5]): 35
CCNC(=O)c1cc(CCCl)n(Cc2ccnc(C(F)(F)F)c2)n1 [Compound 179]	5	50	75	0	30	30	30	0	40	65	80	0	40	95	90	0	0	0	35	0	Plant response rating, Johnsongrass (johnsongrass; [1]): 20; Plant response rating, Johnsongrass (johnsongrass; [2]): 20; Plant response rating, Johnsongrass (johnsongrass; [3]): 70; Plant response rating, Johnsongrass (johnsongrass; [4]): 0
